Test system: K24384-001-R-PDC complex spheroids, viability
Assay: Anticancer human tumor K24384-001-R-PDC patient-derived pancreatic adenocarcinoma cell line growth inhibition [GQUAD]
Settings: for IC50: curve of first compound; for viability, T/C: stronger effect = lower value
Summary of the method: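 Tumor cells were grown as complex spheroids with HUVEC endothelial cells and mesenchymal stem cells as stroma. G-quadruplex stabilizers were combined with targeted agents over half-log dilutions from near the clinical Cmax, or from 10 microM.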

[1] = second compound 0.0316 µM, first compound 0.0316 µM
[2] = second compound 0.0316 µM, first compound 0.1 µM
[3] = second compound 0.0316 µM, first compound 0.316 µM
[4] = second compound 0.0316 µM, first compound 1 µM
[5] = second compound 0.0316 µM, first compound 3.16 µM
[6] = second compound 0.0316 µM, first compound 10 µM
[7] = second compound 0.1 µM, first compound 0.0316 µM
[8] = second compound 0.1 µM, first compound 0.1 µM
[9] = second compound 0.1 µM, first compound 0.316 µM
[10] = second compound 0.1 µM, first compound 1 µM
[11] = second compound 0.1 µM, first compound 3.16 µM
[12] = second compound 0.1 µM, first compound 10 µM
[13] = second compound 0.316 µM, first compound 0.0316 µM
[14] = second compound 0.316 µM, first compound 0.1 µM
[15] = second compound 0.316 µM, first compound 0.316 µM
[16] = second compound 0.316 µM, first compound 1 µM
[17] = second compound 0.316 µM, first compound 3.16 µM
[18] = second compound 0.316 µM, first compound 10 µM
[19] = second compound 1 µM, first compound 0.0316 µM
[20] = second compound 1 µM, first compound 0.1 µM
[21] = second compound 1 µM, first compound 0.316 µM
[22] = second compound 1 µM, first compound 1 µM
[23] = second compound 1 µM, first compound 3.16 µM
[24] = second compound 1 µM, first compound 10 µM
[25] = second compound 3.16 µM, first compound 0.0316 µM
[26] = second compound 3.16 µM, first compound 0.1 µM
[27] = second compound 3.16 µM, first compound 0.316 µM
[28] = second compound 3.16 µM, first compound 1 µM
[29] = second compound 3.16 µM, first compound 3.16 µM
[30] = second compound 3.16 µM, first compound 10 µM
[31] = second compound 10 µM, first compound 0.0316 µM
[32] = second compound 10 µM, first compound 0.1 µM
[33] = second compound 10 µM, first compound 0.316 µM
[34] = second compound 10 µM, first compound 1 µM
[35] = second compound 10 µM, first compound 3.16 µM
[36] = second compound 10 µM, first compound 10 µM
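Further: spheroids exposed to compounds for seven days.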

**Q.** `C#Cc1c(F)ccc2cc(O)cc(-c3ncc4c(N5CC6CCC(C5)N6)nc(OCC56CCCN5CC(F)C6)nc4c3F)c12` (centres undefined) + Cc1cnc(CNC(=O)c2c(=O)c3ccc(N4CCCN(C)CC4)nc3n3c2sc2ccccc23)cn1 was tested. Which IC50 (second compound 0.0316 µM) did it give?
**A.** 0.966 µM

**Q.** What about the IC50 (second compound 0.1 µM) of the same compound?
**A.** 0.494 µM

**Q.** And the IC50 (second compound 0.316 µM)?
**A.** 0.0918 µM

**Q.** What about the IC50 (second compound 1 µM) of the same compound?
**A.** < 0.0316 µM

**Q.** And the IC50 (second compound 3.16 µM)?
**A.** < 0.0316 µM

**Q.** And the IC50 (second compound 10 µM)?
**A.** < 0.0316 µM

**Q.** And the viability, T/C [1]?
**A.** 72%

**Q.** And the viability, T/C [2]?
**A.** 83.7%

**Q.** And the viability, T/C [3]?
**A.** 88.4%

**Q.** What about the viability, T/C [4] of the same compound?
**A.** 49%

**Q.** And the viability, T/C [5]?
**A.** 31.2%

**Q.** What about the viability, T/C [6] of the same compound?
**A.** 23.1%

**Q.** What about the viability, T/C [7] of the same compound?
**A.** 68.5%

**Q.** What about the viability, T/C [8] of the same compound?
**A.** 65.3%

**Q.** What about the viability, T/C [9] of the same compound?
**A.** 54%

**Q.** What about the viability, T/C [10] of the same compound?
**A.** 41.6%

**Q.** What about the viability, T/C [11] of the same compound?
**A.** 31.9%

**Q.** What about the viability, T/C [12] of the same compound?
**A.** 20.4%

**Q.** And the viability, T/C [13]?
**A.** 52.3%

**Q.** What about the viability, T/C [14] of the same compound?
**A.** 48%

**Q.** And the viability, T/C [15]?
**A.** 51.6%

**Q.** And the viability, T/C [16]?
**A.** 31.7%

**Q.** And the viability, T/C [17]?
**A.** 32.7%

**Q.** What about the viability, T/C [18] of the same compound?
**A.** 15.5%

**Q.** And the viability, T/C [19]?
**A.** 34.7%

**Q.** What about the viability, T/C [20] of the same compound?
**A.** 42.6%

**Q.** And the viability, T/C [21]?
**A.** 41.5%

**Q.** What about the viability, T/C [22] of the same compound?
**A.** 29%

**Q.** And the viability, T/C [23]?
**A.** 27%

**Q.** What about the viability, T/C [24] of the same compound?
**A.** 14.1%

**Q.** What about the viability, T/C [25] of the same compound?
**A.** 29%

**Q.** And the viability, T/C [26]?
**A.** 36.7%

**Q.** And the viability, T/C [27]?
**A.** 33.9%

**Q.** What about the viability, T/C [28] of the same compound?
**A.** 34.9%

**Q.** And the viability, T/C [29]?
**A.** 18.4%

**Q.** What about the viability, T/C [30] of the same compound?
**A.** 11.9%

**Q.** What about the viability, T/C [31] of the same compound?
**A.** 0.13%

**Q.** What about the viability, T/C [32] of the same compound?
**A.** 0.18%

**Q.** What about the viability, T/C [33] of the same compound?
**A.** 0.23%

**Q.** And the viability, T/C [34]?
**A.** 0.2%

**Q.** What about the viability, T/C [35] of the same compound?
**A.** 0.23%

**Q.** And the viability, T/C [36]?
**A.** 0.2%

**Q.** `COc1ccc([C@@H](O)c2cc(-c3ncnc4cc(N5CCOCC5)ccc34)c(F)cc2Cl)nn1` + CN(C)c1ccc(Nc2c3ccc(NC(=O)CCN4CCCC4)cc3nc3cc(NC(=O)CCN4CCCC4)ccc23)cc1 was tested. Which IC50 (second compound 0.0316 µM) did it give?
**A.** 2.1 µM

**Q.** What about the IC50 (second compound 0.1 µM) of the same compound?
**A.** 2.6 µM

**Q.** What about the IC50 (second compound 0.316 µM) of the same compound?
**A.** 1.61 µM

**Q.** And the IC50 (second compound 1 µM)?
**A.** 1.93 µM

**Q.** What about the IC50 (second compound 3.16 µM) of the same compound?
**A.** 2.54 µM

**Q.** And the IC50 (second compound 10 µM)?
**A.** 1.08 µM

**Q.** And the viability, T/C [1]?
**A.** 98.6%

**Q.** And the viability, T/C [2]?
**A.** 86.4%

**Q.** What about the viability, T/C [3] of the same compound?
**A.** 81.2%

**Q.** And the viability, T/C [4]?
**A.** 58.7%

**Q.** And the viability, T/C [5]?
**A.** 44.3%

**Q.** What about the viability, T/C [6] of the same compound?
**A.** 36.5%

**Q.** And the viability, T/C [7]?
**A.** 89.5%

**Q.** And the viability, T/C [8]?
**A.** 96.5%

**Q.** What about the viability, T/C [9] of the same compound?
**A.** 102%

**Q.** What about the viability, T/C [10] of the same compound?
**A.** 76.6%

**Q.** And the viability, T/C [11]?
**A.** 45.9%

**Q.** What about the viability, T/C [12] of the same compound?
**A.** 34.9%

**Q.** And the viability, T/C [13]?
**A.** 91.4%

**Q.** And the viability, T/C [14]?
**A.** 109%

**Q.** And the viability, T/C [15]?
**A.** 83.8%

**Q.** And the viability, T/C [16]?
**A.** 56.8%

**Q.** And the viability, T/C [17]?
**A.** 42.5%

**Q.** And the viability, T/C [18]?
**A.** 25.8%

**Q.** What about the viability, T/C [19] of the same compound?
**A.** 82.1%

**Q.** What about the viability, T/C [20] of the same compound?
**A.** 83.1%

**Q.** What about the viability, T/C [21] of the same compound?
**A.** 84.8%

**Q.** And the viability, T/C [22]?
**A.** 62.4%

**Q.** What about the viability, T/C [23] of the same compound?
**A.** 40.3%

**Q.** What about the viability, T/C [24] of the same compound?
**A.** 23.4%

**Q.** What about the viability, T/C [25] of the same compound?
**A.** 91.9%

**Q.** What about the viability, T/C [26] of the same compound?
**A.** 95.4%

**Q.** What about the viability, T/C [27] of the same compound?
**A.** 72.2%

**Q.** What about the viability, T/C [28] of the same compound?
**A.** 75.5%

**Q.** What about the viability, T/C [29] of the same compound?
**A.** 42.4%

**Q.** What about the viability, T/C [30] of the same compound?
**A.** 22.5%

**Q.** What about the viability, T/C [31] of the same compound?
**A.** 67.3%

**Q.** And the viability, T/C [32]?
**A.** 73.6%

**Q.** What about the viability, T/C [33] of the same compound?
**A.** 72.3%

**Q.** And the viability, T/C [34]?
**A.** 44.3%

**Q.** What about the viability, T/C [35] of the same compound?
**A.** 34.3%

**Q.** And the viability, T/C [36]?
**A.** 12.3%

Source: PubChem BioAssay AID2060483 (Molecular Pharmacology Branch, DTP, NCI, 2025)
